“And” between values parts separate entries of the source, which are not always exact repeats. Equal values may be shown once.
Key:
Format in all cases: cell-based, human
UMPS knockout T cells = assay: Cell counts after recovery post-electroporation; details: 4 days recovery post electroporation, no serum, with 5-FOA
Method: (§1) K562 cells (acquired from ATCC) and Nalm6 cells (kindly provided by C. Mackall) were cultured in RPMI 1640 (HyClone) supplemented with 10% bovine growth serum, 2 mM L-glutamine and 100 U/ml Penicillin and 100 U/ml Streptomycin. T cells were either used fresh after isolation from buffy coats obtained from healthy donors. T cells were isolated through a Ficoll density gradient centrifugation followed by magnetic enrichment using the Pan T Cell Isolation Kit (Miltenyi Biotec).
(§2) Cells were cryopreserved in BAMBANKER™ medium. After thawing cells were cultured at 37° C., 5% CO2 in X-Vivo 15 (Lonza) supplemented with or without 5% human serum (Sigma-Aldrich) and […] recombinant IL-2 (Peprotech) and 10 ng/ml human recombinant IL-7 (BD Biosciences). […]
(§3) Genomic DNA was harvested using QUICKEXTRACT™ DNA Extraction Kit (Epicentre). Cells were counted on an automated cell counter using Trypan blue staining or on a CytoFLEX flow cytometer (Beckman Coulter) with automatic plate reader using COUNTBRIGHT™ beads (ThermoFisher) as a reference for normalizing the values. Alternatively, cells were analyzed after staining with fluorochrome-labelled antibodies (Biolegend) on an ACCURI™ C6 flow cytometer (BD Biosciences), which also measures volumes, or a FACS ARIA™ II SORP cell sorter (BD Biosciences). Data was analyzed using Excel (Microsoft) and FlowJo software (Tree Star). […]

mock edited T cells = assay: Cell counts after recovery post-electroporation; details: 4 days recovery post electroporation, no serum, with 5-FOA
Method: as §1, §2, §3

[1] = test system: UMPS^KO/KO T cells mixed with wild-type T cells; assay: 5-FOA selection in mixed T cell population
Text: To evaluate the possibility to select for UMPS^KO/KO cells with 5-FOA, the sorted cells were mixed with wild-type cells, which were labeled with different tracking dyes, and cultured in the presence or absence of 5-FOA. In part of the samples, 5-FOA was only added on the first day (Day 0) while in another group it was supplemented daily. Table 30 and FIG. 7C show the percent (%) of the UMPS-KO T cells (labelled with eFluor670) over time when culturing with or without 5-FOA.
In fact, FACS analysis of a culture of a mixed population of UMPS knockout and wild-type T cells with 5-FOA. UMPS-KO T cells were labeled with eFluor670, and wild-type cells were labeled with carboxyfluorescein succinimidyl ester (CFSE). […] On Day 0 in the control group not treated with 5-FOA, 47.7% of the cells were UMPS-KO T cells, and 52.1% were wild-type cells. On Day 3 in the group with 5-FOA supplemented daily, 74.0% of the cells were UMPS-KO T cells, while 25.8% were wild-type cells. On Day 3 in the control group not treated with 5-FOA, 43.1% of the cells were UMPS-KO T cells, and 56.4% were wild-type cells.

Mock T cells = assay: Uracil auxotrophy growth assay after 5-FOA selection; details: after 4 days 5-FOA selection, 4 days in supplemented media, without serum
Method: To assay whether or not the cells selected for by 5-FOA treatment were uracil auxotrophs, mock or UMPS targeted T cells were exposed to 5-FOA as shown in Example 4. Following 4 days of 5-FOA selection, the population of cells was split into an uracil containing media (UMP, uridine or both) and an uracil deficient media. A growth assay was subsequently performed by cell counting after following 4 days incubation in test media (Day 8) (FIG. 4A). In all cases, cell growth in the mock targeted cell cultures was negligible and independent of uracil source supplementation—indicating successful killing of non-UMPS targeted cells during the 5-FOA selection step (FIG. 4B-FIG. 4D).

UMPS^KO/KO Nalm6 cells = assay: Growth curves of Nalm6 cells with uridine; details: for Cell counts, Day 0 / Cell counts, Day 1 / Cell counts, Day 2 / Cell counts, Day 3 / Cell counts, Day 4 / Cell counts, Day 5 / Cell counts, Day 6 / Cell counts, Day 7: UMPS^KO/KO
Method: The same experiment was performed with Nalm6 cells and a similar dependency on the uridine concentration in the culture was observed that was not visible for cells with intact UMPS. Table 25 provides data of growth curves of UMPS^KO/KO Nalm6 cells cultured with different uridine concentrations. No difference was observed between the groups receiving uridine supplement treatment and those not for wild-type cells.

## O=C(O)c1[nH]c(=O)[nH]c(=O)c1F [5-FOA, 5-fluoroorotic acid]
UMPS knockout T cells
  Intact cells (absolute): 395
Mock edited T cells
  Intact cells (absolute): 580
[1]; 5-FOA Day 0 only
  Percent of UMPS^KO/KO cells in mixed cell population, Day 0: 43.7% and 43.2%
  Percent of UMPS^KO/KO cells in mixed cell population, Day 1: 59.2% and 55.6% and 50.8%
  Percent of UMPS^KO/KO cells in mixed cell population, Day 3: 67.2% and 68.6% and 67.8%
[1]; 5-FOA daily
  Percent of UMPS^KO/KO cells in mixed cell population, Day 0: 43.2%
  Percent of UMPS^KO/KO cells in mixed cell population, Day 1: 58.5% and 55.4% and 54.5%
  Percent of UMPS^KO/KO cells in mixed cell population, Day 3: 70.7% and 69.2%
[1]; 5-FOA only on the first day (Day 0), FACS
  percent wild-type cells in mixed population, Day 0: 56.0%
[1]; 5-FOA supplemented daily, FACS
  percent wild-type cells in mixed population, Day 3: 25.8%
[1]; unpaired t test
  percent of UMPS-KO T cells, treated vs untreated group: significant increase in the percent of UMPS-KO T cells

## O=c1ccn([C@@H]2O[C@H](CO)[C@@H](O)[C@H]2O)c(=O)[nH]1 [Uridine]
Mock T cells
  Cells counts on Day 8: 1249 and 687
UMPS^KO/KO Nalm6 cells; 2.5 μg/ml uridine
  Cell counts, Day 0: 20121 and 29155 and 28090
  Cell counts, Day 1: 42194 and 38023 and 40650
  Cell counts, Day 2: 69808 and 88300 and 87146
  Cell counts, Day 3: 70287 and 70547 and 78663
  Cell counts, Day 4: 80625 and 81737 and 79012
  Cell counts, Day 5: 193482 and 188952 and 193913
  Cell counts, Day 6: 380782 and 383866 and 377748
  Cell counts, Day 7: 755497 and 796763 and 793429
UMPS^KO/KO Nalm6 cells; 25 μg/ml uridine
  Cell counts, Day 0: 14984 and 18952 and 14400
  Cell counts, Day 1: 21277 and 25189 and 19688
  Cell counts, Day 2: 69085 and 68027 and 71301
  Cell counts, Day 3: 142944 and 176018 and 189125
  Cell counts, Day 4: 388585 and 324708 and 395062
  Cell counts, Day 5: 1624178 and 1360329
  Cell counts, Day 6: 3646724 and 3386243 and 3792593
  Cell counts, Day 7: 7293447 and 5746352 and 6538953
UMPS^KO/KO Nalm6 cells; 250 μg/ml uridine
  Cell counts, Day 0: 20704 and 24510 and 29762
  Cell counts, Day 1: 37175 and 35461 and 30769
  Cell counts, Day 2: 101781 and 106667 and 112045
  Cell counts, Day 3: 210805 and 265340 and 257649
  Cell counts, Day 4: 551249 and 564374
  Cell counts, Day 5: 2072099 and 2343280 and 1844675
  Cell counts, Day 6: 3792593 and 4514991 and 4122383
  Cell counts, Day 7: 7585185 and 6320988 and 7901235
UMPS^KO/KO Nalm6 cells; groups supplemented with uridine, especially 25 and 250 μg/ml
  growth: Significantly greater growth
